Laboratory results published in patent US7253146B2, “Template-fixed peptidomimetics with antimicrobial activity” (Polyphor Ltd, priority 2001, dated 2007).
Values after ≈ are worked out from the molar mass of the structure shown. *1 amine or outer side, *2 acyl side, *3 side chain or, on linkers, in order; H or OH if unused. Where a SMILES comes first, the peptide text is derived from it. [ ]: non-standard residue; d: D form. The star is where a group is joined. X2 = CCCCCCCC(=O)N[C@H]1C[C@@H](C(=O)[*:2])N([*:1])C1; Cha = N[C@@H](CC1CCCCC1)C(=O)O; Nle = CCCC[C@H](N)C(=O)O; Orn = NCCC[C@H](N)C(=O)O; Bn = c1ccc(C*)cc1

Tests used:
[1] = tested on: Escherichia coli (ATCC 25922); conditions: ATCC 25922
Description: (§1) Lyophilized peptides were weighed on a Microbalance (Mettler MT5) and dissolved in sterile water containing 0.01% acetic acid Tachyplesin was purchased from Bachem Ltd. (Bubendorf Switzerland).
(§2) The antimicrobial activities of the peptides were determined by the standard NCCLS broth microdilution method (see ref 1, below) examined in sterile 96-wells plates (Nunclon polystyrene microtiter plates) in a total volume of 100 μl. […] 10^6 colony forming units (CFU)/ml for bacteria or 5×10^3 CFU/ml for Candida. Aliquots (50 μl) of the innocula were added to 50 μl of MH broth containing the peptide in serial twofold dilutions. The microorganisms used were Escherichia coli (ATCC 25922), Pseudomnonas aeruginosa (P. aeruginosa) (ATCC 27853), Stahylococcus aureus (ATCC 29213 and ATCC 25923) and Candida albicans. A selected number of peptides were screened for activity against a larger panel of gram-negative strains. These strains were; Escherichia coli ATCC 43827 and clinical isolates of Pseudomonas (P. aeruginosa V07 14482, P. aeruginosa 15288, P. aeruginosa V02 15328 and P. aeruginosa V09 16085) and Acinetobacter (Acinetobacter V04 19905/1, Acinetobacter V12 21143/1 and Acinetobacter V12 21193/1).

Candida albicans = tested on: Candida albicans
Description: as §1, §2

[2] = tested on: Staphylococcus aureus ATCC 29213; conditions: ATCC 29213
Description: as §1, §2

[3] = tested on: Staphylococcus aureus ATCC 25923; conditions: ATCC 25923
Description: as §1, §2

| SMILES | MIC Escherichia coli ATCC 25922 [1] [µg/mL] | MIC Candida albicans (Candida albicans) [µg/mL] | MIC Staphylococcus aureus ATCC 29213 [2] [µg/mL] | MIC Staphylococcus aureus ATCC 25923 [3] [µg/mL] |
| --- | --- | --- | --- | --- |
| CC(C)C[C@@H]1NC(=O)[C@H](Cc2ccc(O)cc2)NC(=O)[C@H](CCCNC(=N)N)NC(=O)[C@H](CCCNC(=N)N)NC(=O)[C@H](CCCNC(=N)N)NC(=O)[C@H](Cc2ccc(O)cc2)NC(=O)[C@H](CC(C)C)NC(=O)[C@H](CC(C)C)NC(=O)[C@H](Cc2ccc(O)cc2)NC(=O)[C@H](CCCNC(=N)N)NC(=O)[C@@H]2CCCN2C(=O)[C@H]2CCCN2C(=O)[C@H](CCCNC(=N)N)NC(=O)[C@H](CCCNC(=N)N)NC(=O)[C@H](Cc2ccc(O)cc2)NC(=O)[C@H](CC(C)C)NC1=O [Example 71] (cyclo(RYLLYRRRYLLYRR[dP]P)) | 12.5 (≈ 5.59 µM) | 50 (≈ 22.4 µM) | 12.5 (≈ 5.59 µM) | 12.5 (≈ 5.59 µM) |
| CC[C@H](C)[C@@H]1NC(=O)[C@H](CCCCN)NC(=O)[C@H](Cc2c[nH]c3ccccc23)NC(=O)[C@H](CCCNC(=N)N)NC(=O)[C@H](CCCNC(=N)N)NC(=O)[C@H](CCCCN)NC(=O)[C@H](CCCCN)NC(=O)[C@H](CC(C)C)NC(=O)[C@H](CCCNC(=N)N)NC(=O)[C@H](CC(C)C)NC(=O)[C@@H]2CCCN2C(=O)[C@H]2CCCN2C(=O)[C@H](C(C)C)NC(=O)[C@H](CCCNC(=N)N)NC1=O [Example 152] (cyclo(LRLKKRRWKIRV[dP]P)) | 25 (≈ 13.7 µM) | 12.5 (≈ 6.84 µM) | 50 (≈ 27.3 µM) | 25 (≈ 13.7 µM) |
| CC(C)C[C@@H]1NC(=O)[C@H](CCCNC(=N)N)NC(=O)[C@H](CC(C)C)NC(=O)[C@@H]2CCCN2C(=O)[C@H]2CCCN2C(=O)[C@H](C(C)C)NC(=O)[C@H](CCCNC(=N)N)NC(=O)[C@H](Cc2ccc(O)cc2)NC(=O)[C@H](CCCN)NC(=O)[C@H](Cc2c[nH]c3ccccc23)NC(=O)[C@H](CCCNC(=N)N)NC(=O)[C@H](CCCNC(=N)N)NC(=O)[C@H](CCCCN)NC(=O)[C@H](CCCCN)NC1=O [Example 217] (cyclo(LRLKKRRW[Orn]YRV[dP]P)) | 18.8 (≈ 10.1 µM) | 12.5 (≈ 6.7 µM) | 12.5 (≈ 6.7 µM) | 25 (≈ 13.4 µM) |
| CC(C)C[C@@H]1NC(=O)[C@H](CCCNC(=N)N)NC(=O)[C@H](CC2CCCCC2)NC(=O)[C@@H]2CCCN2C(=O)[C@H]2CCCN2C(=O)[C@H](C(C)C)NC(=O)[C@H](CCCNC(=N)N)NC(=O)[C@H](Cc2ccc(O)cc2)NC(=O)[C@H](CCCCN)NC(=O)[C@H](Cc2c[nH]c3ccccc23)NC(=O)[C@H](CCCNC(=N)N)NC(=O)[C@H](CCCNC(=N)N)NC(=O)[C@H](CCCCN)NC(=O)[C@H](CCCCN)NC1=O [Example 121] (cyclo([Cha]RLKKRRWKYRV[dP]P)) | 25 (≈ 13 µM) | 6.2 (≈ 3.23 µM) | 6.2 (≈ 3.23 µM) | 6.2 (≈ 3.23 µM) |
| CC(C)C[C@@H]1NC(=O)[C@H](CCCNC(=N)N)NC(=O)[C@H](CCCNC(=N)N)NC(=O)[C@H](CCCNC(=N)N)NC(=O)[C@H](Cc2ccccc2)NC(=O)[C@H](Cc2ccccc2)NC(=O)[C@H](CC(C)C)NC(=O)[C@H](CCCNC(=N)N)NC(=O)[C@@H]2CCCN2C(=O)[C@H]2CCCN2C(=O)[C@H](CCCNC(=N)N)NC(=O)[C@H](Cc2ccccc2)NC1=O [Example 36] (cyclo(RLFFRRRLFR[dP]P)) | 25 (≈ 15.2 µM) | 25 (≈ 15.2 µM) | 25 (≈ 15.2 µM) | 50 (≈ 30.4 µM) |
| CCCCCCCC(=O)N[C@H]1C[C@H]2C(=O)N[C@@H](CC(C)C)C(=O)N[C@@H](CCCNC(=N)N)C(=O)N[C@@H](CC(C)C)C(=O)N[C@@H](CCCCN)C(=O)N[C@@H](CCCCN)C(=O)N[C@@H](CCCNC(=N)N)C(=O)N[C@@H](CCCNC(=N)N)C(=O)N[C@@H](Cc3c[nH]c4ccccc34)C(=O)N[C@@H](CCCCN)C(=O)N[C@@H](Cc3ccc(O)cc3)C(=O)N[C@@H](CCCNC(=N)N)C(=O)N[C@@H](C(C)C)C(=O)N3CCC[C@@H]3C(=O)N2C1 [Example 257] (cyclo(KKRRWKYRV[dP][X2]LRL)) | 6.2 (≈ 3.07 µM) | 25 (≈ 12.4 µM) | 6.2 (≈ 3.07 µM) | 6.2 (≈ 3.07 µM) |
| CC(C)C[C@@H]1NC(=O)[C@H](Cc2ccccc2)NC(=O)[C@H](CC(C)C)NC(=O)[C@H](CCCNC(=N)N)NC(=O)[C@@H]2CCCN2C(=O)[C@H]2CCCN2C(=O)[C@H](CC(C)C)NC(=O)[C@H](CCCNC(=N)N)NC(=O)[C@H](Cc2ccccc2)NC(=O)[C@H](Cc2ccccc2)NC(=O)[C@H](CCCNC(=N)N)NC(=O)[C@H](CCCNC(=N)N)NC(=O)[C@H](CCCNC(=N)N)NC1=O [Example 59] (cyclo(RLFLRRRFFRL[dP]P)) | 4.7 (≈ 2.68 µM) | 25 (≈ 14.2 µM) | 25 (≈ 14.2 µM) | 50 (≈ 28.5 µM) |
| CC(C)C[C@@H]1NC(=O)[C@H](Cc2ccccc2)NC(=O)[C@H](CC(C)C)NC(=O)[C@H](Cc2ccccc2)NC(=O)[C@@H]2CCCN2C(=O)[C@H]2CCCN2C(=O)[C@H](CCCNC(=N)N)NC(=O)[C@H](CCCNC(=N)N)NC(=O)[C@H](Cc2ccccc2)NC(=O)[C@H](CC(C)C)NC(=O)[C@H](CCCNC(=N)N)NC(=O)[C@H](CCCNC(=N)N)NC(=O)[C@H](CCCNC(=N)N)NC1=O [Example 63] (cyclo(FLFLRRRLFRR[dP]P)) | 6.2 (≈ 3.53 µM) | 12.5 (≈ 7.12 µM) | 12.5 (≈ 7.12 µM) | 25 (≈ 14.2 µM) |
| CC(C)C[C@@H]1NC(=O)[C@H](CCCNC(=N)N)NC(=O)[C@H](CCCNC(=N)N)NC(=O)[C@H](CCCNC(=N)N)NC(=O)[C@H](Cc2ccc(O)cc2)NC(=O)[C@H](Cc2ccc(O)cc2)NC(=O)[C@H](CCCNC(=N)N)NC(=O)[C@@H]2CCCN2C(=O)[C@H]2CCCN2C(=O)[C@H](CCCNC(=N)N)NC(=O)[C@H](Cc2ccc(O)cc2)NC1=O [Example 11] (cyclo(RYYRRRLYR[dP]P)) | 25 (≈ 15.8 µM) | 100 (≈ 63.4 µM) | 100 (≈ 63.4 µM) | 100 (≈ 63.4 µM) |
| CC(C)C[C@@H]1NC(=O)[C@H](CCCNC(=N)N)NC(=O)[C@H](CC(C)C)NC(=O)[C@@H]2CCCN2C(=O)[C@H]2CCCN2C(=O)[C@H](C(C)C)NC(=O)[C@H](CCCNC(=N)N)NC(=O)[C@H]([C@@H](C)OCc2ccccc2)NC(=O)[C@H](CCCCN)NC(=O)[C@H](Cc2c[nH]c3ccccc23)NC(=O)[C@H](CCCNC(=N)N)NC(=O)[C@H](CCCNC(=N)N)NC(=O)[C@H](CCCCN)NC(=O)[C@H](CCCCN)NC1=O [Example 206] (cyclo(LRLKKRRWKT(Bn)RV[dP]P)) | 6.2 (≈ 3.25 µM) | 6.2 (≈ 3.25 µM) | 12.5 (≈ 6.56 µM) | 12.5 (≈ 6.56 µM) |
| CC(C)C[C@@H]1NC(=O)[C@H](CCCNC(=N)N)NC(=O)[C@H](CCCNC(=N)N)NC(=O)[C@H](CCCNC(=N)N)NC(=O)[C@H](Cc2ccccc2)NC(=O)[C@H](Cc2ccccc2)NC(=O)[C@H](CC(C)C)NC(=O)[C@H](CC(C)C)NC(=O)[C@@H]2CCCN2C(=O)[C@H]2CCCN2C(=O)[C@H](CCCNC(=N)N)NC(=O)[C@H](Cc2ccccc2)NC1=O [Example 40] (cyclo(LLFFRRRLFR[dP]P)) | 25 (≈ 15.6 µM) | 25 (≈ 15.6 µM) | 25 (≈ 15.6 µM) | 50 (≈ 31.2 µM) |
| CC(C)C[C@@H]1NC(=O)[C@H](CCCNC(=N)N)NC(=O)[C@H](CCCCN)NC(=O)[C@@H]2CCCN2C(=O)[C@H]2CCCN2C(=O)[C@H](CCCNC(=N)N)NC(=O)[C@H](CC(C)C)NC(=O)[C@H](C(C)C)NC(=O)[C@H](CCCCN)NC(=O)[C@H](C(C)C)NC(=O)[C@H](Cc2ccc(O)cc2)NC(=O)[C@H](Cc2c[nH]c3ccccc23)NC(=O)[C@H](CCCNC(=N)N)NC(=O)[C@H](CCCNC(=N)N)NC(=O)[C@H](CCCNC(=N)N)NC(=O)[C@H](Cc2c[nH]c3ccccc23)NC(=O)[C@H](Cc2ccc(O)cc2)NC(=O)[C@H](CCCCN)NC1=O [Example 87] (cyclo(KRLKYWRRRWYVKVLR[dP]P)) | 6.2 (≈ 2.5 µM) | 12.5 (≈ 5.03 µM) | 9.4 (≈ 3.79 µM) | 9.4 (≈ 3.79 µM) |
| CCCC[C@@H]1NC(=O)[C@H](CCCCN)NC(=O)[C@H](Cc2c[nH]c3ccccc23)NC(=O)[C@H](CCCNC(=N)N)NC(=O)[C@H](CCCNC(=N)N)NC(=O)[C@H](CCCCN)NC(=O)[C@H](CCCCN)NC(=O)[C@H](CC(C)C)NC(=O)[C@H](CCCNC(=N)N)NC(=O)[C@H](CC(C)C)NC(=O)[C@@H]2CCCN2C(=O)[C@H]2CCCN2C(=O)[C@H](C(C)C)NC(=O)[C@H](CCCNC(=N)N)NC1=O [Example 154] (cyclo(LRLKKRRWK[Nle]RV[dP]P)) | 12.5 (≈ 6.84 µM) | 12.5 (≈ 6.84 µM) | 25 (≈ 13.7 µM) | 12.5 (≈ 6.84 µM) |
